Results reported in patent US20050090669A1, “Aminoalcohol derivatives as beta-3 adrenergic receptor agonists” (priority 2002, published 2005).

Tested on: Increase in Intravesical Pressure Induced by Carbachol in Anesthetized Dog
Assay: Effect on the increase in intravesical pressure induced by carbachol in anesthetized dog
Type: in vivo
Conditions: 0.032 mg/kg intravenously, 30 minutes before carbachol (1.8 μg/kg); female Beagle dogs under halothane anesthesia
Description: Effect on the Increase in Intravesical Pressure Induced by Carbachol in Anesthetized Dog
Female Beagle dogs weighing 8.0-15.0 kg were fasted for 24 hours and maintained under halothane anesthesia. A 12 F Foley catheter was lubricated with water soluble jelly, inserted into the urethral orifice and advanced approximately 10 cm until the balloon tip was placed well inside the bladder. The balloon was then inflated with 5 ml of room air and catheter slowly withdrawn just part the first resistance that is felt at the bladder neck. Urine was completely drained out through the catheter, and 30 ml of biological saline was infused. The catheter was connected to pressure transducer, and intravesical pressure (IVP) was continuously recordered. The test compound was administered intravenously at 30 minutes before the administration of carbachol (1.8 μg/kg). Percent inhibition of IVP increase by test compound was calculated by dividing IVPa (IVP increase induced by carbachol after test compound administaration) by IVPb (IVP increase induced by carbachol just before test compound administration).

SMILES: COc1ccc(Oc2ccc3c(c2)C[C@@H](NC[C@H](O)c2ccc(Cl)cc2)CC3)cc1C(=O)O.Cl [Test Compound (1), 5-[[(7S)-7-[[(2R)-2-(4-Chlorophenyl)-2-hydroxyethyl]-amino]-5,6,7,8-tetrahydro-2-naphthalenyl]oxy]-2-methoxybenzoic Acid Hydrochloride]
- Percent inhibition of IVP increase: 54%
